# Experiments:
# [1] = system: analgesic effect induced by morphine; test: Morphine antagonist rat tail flick (antagonist activity); conditions: for ED50: Rattus norvegicus, sc, read-out: ED50 Antagonist Activity, Morphine Antagonist Rat Tail Flick
# [2] = system: phenylquinone induced writhing; test: Mouse phenylquinone writhing (analgesic activity); assay type: in vivo; conditions: for analgesic potency relative to pentazocine: in words, compared with pentazocine; for ED50: sc, mouse, subcutaneous, hydrochloride salts of IX and X, 50 percent reduction in number of writhings
# Text: ^1 A 50 percent reduction in number of phenylquinone induced writhing
# [Siegmumd, E.A., et al., Proc. Soc. Biol. & Med 95, p. 729 (1957)].
# [3] = Behavioral studies in the dog; assay type: in vivo; conditions: subcutaneous dose of 2 mg./kg.
# Description: The normal parenteral dosage of the compounds of this invention in adult humans is about 0.25 to 16 mg. three to four times a day.
# [4] = system: Straub Tail induced by oxymorphone; test: Oxymorphone Straub Tail antagonism (antagonist activity); assay type: in vivo, mouse; conditions: for ED50: sc, mouse, subcutaneous, hydrochloride salts of IX and X, oxymorphone 2 mg./kg. s.c.
# Description: ^2 Antagonism of Straub Tail induced by oxymorphone (2 mg./kg. s.c.)
# [5] = Chemical Abstracts 63, 18050-18051 (Belgian Pat. No. 644,679); cited from earlier work
# [6] = Chemical Abstracts 63, 18050-18051 (Belgian Pat. No. 644,679); cited from earlier work; remark: listed apart in the source
# [7] = J. Med. Chem. 12, 845-847 (1969); cited from earlier work
# [8] = monkey; J. Med. Chem. 12, 845-847 (1969); cited from earlier work
Structure (SMILES),ED50 [1] [mg/kg],analgesic potency relative to pentazocine [2],ED50 [2] [mg/kg],side effects in behavioral studies [3],ED50 [4] [mg/kg],analgesic activity (in words) [5],antagonism to meperidine (in words) [6],other results
"Oc1ccc2c(c1)[C@]13CCN(CC4CC4)[C@H](C2)[C@@H]1CCc1ccccc13 (relative stereo) [IX, 3-Hydroxy-17-cyclopropylmethyl-5,6-benzomorphinan]",2.3,about the same analgesic potency as pentazocine,~4.5,free of side effects,~40,–,–,antagonist activity (in words) ([4]; test not given): little antagonist activity
"Oc1ccc2c(c1)[C@]13CCN(CC4CCC4)[C@H](C2)[C@@H]1CCc1ccccc13 (relative stereo) [X, 3-Hydroxy-17-cyclobutylmethyl-5,6-benzomorphinan]",–,about the same analgesic potency as pentazocine,~4.5,free of side effects,> 40,–,–,"times more active as an antagonist in the rat than pentazocine ([1]; rat, relative to pentazocine): approximately 5 times"
Oc1ccc2c(c1)[C@@]13CCCC[C@H]1[C@@H](C2)N(CC1CCC1)CC3 (stereo in doubt) [N-cyclobutylmethyl-3-hydroxymorphinan],–,–,–,–,–,analgesics,antagonists to meperidine,–
"NC(=O)N1CCC2CC1Cc1ccc(O)cc12 (centres unmarked) [3-carboxamido-1,2,3,4,5,6-hexahydro-2,6-methano-3-benzazocin-8-ol]",–,–,–,–,–,–,–,"analgetic effect, oral (in words) [7]: orally effective analgetic; physical dependence capacity (in words) [8]: unusual freedom from physical dependence capacity in the monkey"
Oc1ccc2c(c1)[C@@]13CCCC[C@H]1[C@@H](C2)N(CC1CC1)CC3 [N-cyclopropylmethyl-3-hydroxymorphinan],–,–,–,–,–,analgesics,antagonists to meperidine,–
"CC(C)=CCN1CCC2(C)c3cc(O)ccc3CC1C2C (centres unmarked) [Pentazocine, reference compound]",12.2,–,3.7,–,12,–,–,–

# — US3931188A, “3-Hydroxy-5,6-benzomorphinan derivatives” (Bristol-Myers Company, priority 1974, dated 1976)
